{"source": "patent US6696071B2", "about": "“Pre-coital and post-coital rinse with anti-viral and skin-protective zinc salts” (priority 2001, dated 2004)", "origin": "cited, not measured here", "conditions": "ionic dissociation in water", "data": [{"smiles": "O=C[O-].O=C[O-].[Zn+2]", "note": "[Zinc formate]", "values": [{"measurement": "Reported pK values, pK1", "setting": "pK1", "value": 0.6}, {"measurement": "Reported pK values, pK2", "setting": "pK2", "value": 0.95}]}]}
